According to patent publication US10940139B2, “Compounds that interact with the Ras superfamily for the treatment of cancers, inflammatory diseases, rasopathies, and fibrotic disease” (Shy Therapeutics LLC, priority 2017, dated 2021):

Each compound was assayed against KRas G12D/Q61H double mutant (Homo sapiens (Human), UniProt P01116, G12D/Q61H) (assay: Ras GTP binding domain inhibition assay (labeled GTP)). Conditions: 20 μM compound; KRas G12D/Q61H double mutant; read-out: % Inhibition at 20 μM of K-Ras mutant and wild-type protein, KRas G12D Q61H.
Description: Buffer-I: • 50 mM Tris, pH 7.5 • 150 mM NaCl (optional) • 1 mM MgCl2 • 1 mM DTT. • KRas G12D mutant protein was expressed as a His-tagged protein. Purified His-KRas G12D protein was diluted in buffer-I to a final concentration of 3-10 μg/ml. • 200 μl of the diluted His-KRas G12D protein was added to a nickel coated 96 well plate and incubated overnight at 4° C. • The next day, wells were washed 3× in 200 μl of Buffer-I. • Then 200 μl of Buffer-I were added to each well in the presence of 1% DMSO. • Tested compounds were added to the protein-coated wells at a concentration of 20 μM, and incubated for 3 hours at room temperature. While performing IC50 measurements a serial dilution of all tested concentrations was prepared.
Then 22 μl of Cy3-GTP or Cy5-GTP was added to each well. The labeled GTP was incubated for 45 min. at room temperature. • Following GTP incubation, wells were washed 3× in Buffer-I, and 200 μl of Buffer-I were added to each well. • Following washes, the amount of bound labeled-GTP was measured with an Eppendorf AF2200 plate reader.
By substituting KRas G12D mutant protein with KRas G12C mutant, KRas wild type, KRas Q61H mutant, KRas G12D/Q61H double mutant or KRas G12C/Q61H double mutant under the assay conditions described above, KRas G12C mutant KRas wild type, KRas Q61H mutant, KRas G12D/Q61H double mutant and KRas G12C/Q61H double mutant inhibition, respectively, were each determined.

KRas G12D/Q61H double mutant, sequence (P01116-2 other isoform, or with tags, fused parts or gaps G12D/Q61H): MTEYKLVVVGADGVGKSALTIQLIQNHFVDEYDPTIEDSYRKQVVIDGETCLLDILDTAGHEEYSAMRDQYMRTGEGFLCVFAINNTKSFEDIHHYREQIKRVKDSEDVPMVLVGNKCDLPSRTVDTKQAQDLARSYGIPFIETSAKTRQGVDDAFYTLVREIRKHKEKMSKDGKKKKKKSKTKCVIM

| inhibition at 20 µM | SMILES |
| --- | --- |
| 25 to 50% | CCc1ccccc1OCC(=O)N1N=C(c2ccccc2)CC1(O)C(F)(F)F (centres unmarked) |
| 1 to 25% | COc1ccccc1CN(Cc1coc(-c2ccc(F)cc2)n1)Cc1cccs1 |
| 1 to 25% | Cc1nc(CN(C)CC23CC4CC(CC(C4)C2)C3)oc1C |
| 51 to 75% | OCCCCCSc1n[nH]c(-c2ccccn2)n1 |
| 25 to 50% | COc1cccc(-c2nc(C(=O)N3CCC(c4ccccc4)CC3)c[nH]2)c1OC |
| 25 to 50% | COc1ccc(N(CC(=O)N(c2ccccc2)C(C)C)S(=O)(=O)c2ccccc2C(F)(F)F)cc1 |
| 1 to 25% | Cc1nn(Cc2ccccc2Cl)c(C)c1CN(C)S(=O)(=O)c1cccs1 |
| 51 to 75% | FC(F)n1ccnc1CCNCc1csc(COc2ccccc2)n1 |
| 25 to 50% | COC(=O)C(C)CN(Cc1ccc(OCc2ccc([N+](=O)[O-])cc2)c(OC)c1)C1CC1 (centres unmarked) |
| 25 to 50% | CCOC(=O)c1c(-c2ccc(C)cc2)csc1NC(=O)CN(C)CC(=O)NC1CCC(O)CC1 (centres unmarked) |
| 25 to 50% | CN(Cc1ccccc1C#N)Cc1ccccc1N1CCCCC1 |
| 25 to 50% | CCc1ccc(C(=O)c2cc3ccccc3o2)s1 |
| 25 to 50% | COC(=O)c1ccc(Oc2ccc(S(=O)(=O)N3CCCCC3)cc2NCc2cc(C)on2)cc1 |
| 51 to 75% | O=C(COC1CCCCC1)Nc1nnc(-c2ccccn2)[nH]1 |
| 25 to 50% | CCOC(=O)c1c(NC(C)=O)sc(Cc2ccc3c(c2)OCO3)c1C |
| 25 to 50% | COC(=O)c1sccc1S(=O)(=O)NCCCCCc1nc(-c2ccc(C)cc2)no1 |
| 25 to 50% | CCC(C)c1ccc(S(=O)(=O)NC(c2ccccc2)c2ccccn2)cc1 (centres unmarked) |
| 25 to 50% | COc1ccc(N(C(=O)c2ccc(COc3ccccc3)o2)C(C)C2CC2)cc1 (centres unmarked) |
| 25 to 50% | COCCn1c(SC(C)c2nc(-c3cccnc3)no2)nc2cc(Cl)ccc2c1=O (centres unmarked) |

| SMILES | inhibition at 20 µM |
| --- | --- |
| Cc1ccc2c(c1)C1CN(C)CCC1N2Sc1ccc(Cl)cc1 (centres unmarked) | 25 to 50% |

Same assay, conditions: 20 μM compound; read-out: % Inhibition at 20 μM KRas G12D Q61H

| inhibition at 20 µM | SMILES |
| --- | --- |
| 1 to 25% | O=S(=O)(c1ccccc1)N1CCCc2c(O)nc(-c3ccccn3)nc21 [drawing 2652] |
| 25 to 50% | Oc1nc(-c2ccccn2)nc2[nH]cnc12 [drawing 2696] |
| 25 to 50% | O=C1COc2c(cccc2C(=O)Nc2nnc(-c3ccccn3)[nH]2)N1 |
| 25 to 50% | O=C(Cc1ccc(OC(F)(F)F)cc1)Nc1nnc(-c2ccccn2)[nH]1 |
| 25 to 50% | O=c1nc(-c2ccccn2)[nH]c2c1cnn2-c1cccc(C(F)(F)F)c1 |
| 25 to 50% | c1ccc(Oc2ccccc2NCc2nc(C3CC3)no2)cc1 |
| 51 to 75% | O=C(c1csc2c(O)nc(-c3ccccn3)nc12)N1CCN(c2ccccc2Cl)CC1 [drawing 2718] |
| 25 to 50% | Cc1nc(CN(Cc2ccccc2[N+](=O)[O-])C(C)c2ccc(Cl)cc2)oc1C (centres unmarked) |
| 25 to 50% | O=C(Nc1cccc(C(=O)Nc2nnc(-c3ccccn3)[nH]2)c1)c1cccnc1 |
| 1 to 25% | FC(F)(F)c1csc2nc(-c3ccccn3)nc(N3CCOCC3)c12 [drawing 2741] |
| 25 to 50% | O=C(Nc1nnc(-c2ccccn2)[nH]1)C1CC=CCC1 (centres unmarked) |
| 25 to 50% | CN(Cc1ccc(C(=O)NCC(F)(F)F)cc1)Cc1ccc(F)cc1Cl |
| 25 to 50% | O=C(NCC(=O)N1CCN(C2CC3CCC2C3)CC1)c1ccccn1 (centres unmarked) |
| 1 to 25% | Cc1cccc(OCCNC(=O)c2cc(S(=O)(=O)N3CCOCC3)ccc2N2CCOCC2)c1 |
| 25 to 50% | CC(C)Cc1noc(CN(C)CC23CC4CC(CC(C4)C2)C3)n1 |
| 1 to 25% | C=CCn1c(SCc2csc(-c3cccc(OC)c3OC)n2)nc2ccccc21 |
| 25 to 50% | CCN1CCN(c2nc(-c3ccccn3)nc3sc(-c4ccccc4)cc23)CC1 |
| 25 to 50% | COC(=O)c1cccc(CN2CCN(c3cccc(C(F)(F)F)c3)CC2)c1 |
| 1 to 25% | COCCN(CCOC)c1nc(-c2ccccn2)nc2scc(C(=O)NCCc3cnc(O)nc3)c12 [drawing 2812] |
| 25 to 50% | CC(C1CC1)N(CC(F)(F)F)C(=O)Cc1ccc(Cl)cc1Cl (centres unmarked) |
| 1 to 25% | Cc1ccc(OCc2nnc(SCC3CCCCO3)o2)cc1 (centres unmarked) |
| 25 to 50% | O=C(c1csc2c(O)nc(-c3ccccn3)nc12)N1CCNC(c2cccc(F)c2)C1 (centres unmarked) [drawing 2737] |
| 1 to 25% | FC(F)(F)c1ccnc(N2CCCC2c2cccs2)n1 (centres unmarked) |
| 76 to 100% | Cc1nccc(-c2nc3cc(F)ccc3c(=O)[nH]2)n1 |

| inhibition at 20 µM | SMILES |
| --- | --- |
| 25 to 50% | CN(Cc1ccccn1)Cc1nc2ccccc2n1C |
| 1 to 25% | CC(c1nc2ccccc2n1CCOc1ccccc1)N1CCCCC1 (centres unmarked) |
| 25 to 50% | COc1cccc(C2CN(C(=O)c3csc4c(O)nc(-c5ccccn5)nc34)CCO2)c1 (centres unmarked) [drawing 2729] |
| 25 to 50% | COC(=O)c1cccc(NCc2nc(CC(C)C)no2)c1 |
| 25 to 50% | CCN(Cc1ccc(S(=O)(=O)N(C)C)o1)c1ccccc1 |
| 1 to 25% | O=C(Nc1nnc(-c2ccccn2)s1)c1nccc2ccccc12 |
| 25 to 50% | N#Cc1ccc(OCCSc2nnc(COc3ccc(F)cc3)o2)cc1 |
| 25 to 50% | CCc1ccc(-c2nc(C)c(C(=O)N(Cc3ccco3)C3CCS(=O)(=O)C3)s2)cc1 (centres unmarked) |
| 1 to 25% | N#CC1CN(c2nccc(C(F)(F)F)n2)CCN1Cc1ccccc1 (centres unmarked) |
| 25 to 50% | NC(=O)c1cc(N2CCN(c3cccc(C(F)(F)F)c3)CC2)nc2ccccc12 |
| 25 to 50% | COCc1nc(C)c(C(=O)Nc2nnc(-c3ccccn3)[nH]2)s1 |
| 25 to 50% | Cc1cc(C)n(-c2ccc(C(=O)Nc3nnc(-c4ccccn4)[nH]3)cn2)n1 |
| 25 to 50% | CCN(CC)S(=O)(=O)c1ccc(N2CCCC2)c(C(=O)NCCCn2cnc3ccccc32)c1 |
| 25 to 50% | O=C(CCN1C(=O)CSc2ccccc21)Nc1nnc(-c2ccccn2)[nH]1 |
| 25 to 50% | CCOC(=O)c1sc(N(C2CC2)S(=O)(=O)c2cc(F)ccc2C)nc1C |
| 1 to 25% | O=c1[nH]c(-c2cnc(Oc3ccccc3)cn2)nc2ccsc12 |
| 25 to 50% | O=C(Nc1nnc(-c2ccccn2)[nH]1)C1CCS(=O)(=O)C1 (centres unmarked) |
| 25 to 50% | CN1CCC(C(=O)Nc2nnc(-c3ccccn3)[nH]2)CC1=O (centres unmarked) |
| 25 to 50% | COc1ccc(CC(=O)Nc2nc(-c3ccccn3)cs2)cc1 |
| 1 to 25% | CCc1cc(NNC(=O)C2CC2)nc(-c2ccccn2)n1 |
| 25 to 50% | CC(C)Cc1noc(CNc2cc(C(F)(F)F)ccc2N2CCCC2)n1 |
| 1 to 25% | CCOc1ccc(NC(=O)CN(C)Cc2coc(-c3ccc(C)cc3C)n2)cc1OCC |
| 25 to 50% | CN1CC(Nc2nc(-c3ccccn3)nc3c2CCC3)CCC1=O (centres unmarked) |
| 25 to 50% | O=C(c1cc(-c2ccccc2)on1)N(Cc1ccco1)C1CCCC1 |

Same assay, conditions: 20 μM; read-out: KRas G12D Q61H % Inh.

| inhibition at 20 µM | SMILES |
| --- | --- |
| 51 to 75% | COc1ccc(COCC(=O)Nc2nnc(-c3ccccn3)[nH]2)cc1 [drawing 2563] |
| 51 to 75% | FC(F)(F)Sc1ccc(Cc2ccc(SC(F)(F)F)cc2)cc1 [drawing 2616] |
| 1 to 25% | CN(CC(=O)N1CCCc2c(O)nc(-c3ccccn3)nc21)S(=O)(=O)c1ccccc1 [drawing 2641] |
| 51 to 75% | CS(=O)(=O)c1cccc(C(=O)Nc2nnc(-c3ccccn3)[nH]2)c1 |
| 51 to 75% | Cc1oc(-c2ccccc2)nc1C(=O)Nc1nnc(-c2ccccn2)[nH]1 [drawing 2463] |
| 51 to 75% | O=C(Nc1nnc(-c2ccccn2)[nH]1)C1CCN(C(=O)c2cccs2)CC1 [drawing 2556] |
| 51 to 75% | COc1ccc(CC(=O)Nc2nnc(-c3ccccn3)[nH]2)cc1 [drawing 2485] |
| 51 to 75% | Cc1noc(C)c1CC(=O)Nc1nnc(-c2ccccn2)[nH]1 [drawing 2492] |
| 51 to 75% | O=C(Nc1nnc(-c2ccccn2)[nH]1)C1CCCN(c2ncccn2)C1 (centres unmarked) [drawing 2514] |
| 51 to 75% | O=C(Nc1nc(-c2ccccn2)cs1)c1ccc2[nH]cnc2c1 [drawing 2571] |
| 51 to 75% | O=C(COCc1ccccc1Cl)Nc1nnc(-c2ccccn2)[nH]1 [drawing 2519] |
| 51 to 75% | Cc1nc(-c2ccccn2)nc(O)c1CCC(=O)Nc1cc(F)ccc1F [drawing 2596] |
| 25 to 50% | CC(C)C1=C(O)C2(CC2c2ccc(-c3ccccc3)cc2)C(C)CC1 (centres unmarked) [drawing 2635] |
| 51 to 75% | O=C(Nc1nnc(-c2ccccn2)[nH]1)c1ccc(CN2C(=O)CCC2=O)cc1 [drawing 2481] |
| 51 to 75% | O=C(Cc1c[nH]c2ccccc12)Nc1nnc(-c2ccccn2)[nH]1 [drawing 2456] |
| 51 to 75% | COc1ccccc1C1CC1C(=O)Nc1nnc(-c2ccccn2)[nH]1 (centres unmarked) [drawing 2535] |
| 25 to 50% | Oc1ccc(C2(c3cccc(Cl)c3)CCCC2)cc1 [drawing 2620] |

Same assay, conditions: at 20 μM; read-out: KRas G12D Q61H % Inh.

| inhibition at 20 µM | SMILES |
| --- | --- |
| 0% | COc1cnc(CNC(=O)c2c(C)sc3c(O)nc(-c4ccccn4)nc23)[nH]c1=O [drawing 3841] |
